# Measured values from US20070203209A1, “Useful indole compounds” (priority 2005, published 2007).
# System: ovalbumin-induced eosinophil induction (eosinophils in BAL fluid)
# Experiment: Rat Ovalbumin Model (ovalbumin-induced airway cell proliferation and inflammation)
# Format: in vivo, Brown Norway rats
# Settings: ability to prevent ovalbumin-induced eosinophil induction (percentage of eosinophils in BAL fluid); test compounds dosed orally at 5 mg/kg twice daily, days 5-12; samples 24 hours after last OVA challenge
# Method: Complete protocol details can be found in Eynott et al. (2003. J. Pharmacol. Ther. 304:22-29). Briefly, Brown Norway rats are sensitized on days 1, 2, and 3 with intraperitoneal (i.p.) injections of lmg ovalbumin (OVA) and 100 mg Al(OH)3 in 1 mL 0.9% NaCl saline. They are then exposed to either 0.9% NaCl saline or 1% OVA aerosol every 3rd day (days 6, 9, & 12) for 30 minutes. 2 mg/kg dexamethasone is used as a positive control and is dosed i.p. once a day on days 4, 5, 6, 9, & 12. Vehicle (15% β-cyclodextrins in DMSO) and test compounds are dosed orally twice a day on days 5-12. On challenge days, all animals are treated 1 hour prior to OVA allergen exposure and, if required for twice a day treatment, ˜4-8 hours after allergen exposure. Samples are collected 24 hours after the last OVA challenge. For sample collection, rats are anaesthetized by administration of 10 mg/kg xylazine and 60 mg/kg ketamine intraperitoneally. Once the rats were fully anesthetized, blood is collected for serum via the retro-orbital route. The rats are subsequently perfused by injecting 30 mL PBS through the right ventricle of the heart after the abdominal aorta is severed. A tracheostomy is then performed and bronchoalveolar lavage fluid (BAL) is collected through five 5 mL rinses using Hank's Balanced Salt Solution, which was kept on ice. Airway inflammatory cell accumulation and proliferation of cells are measured through the BAL fluid collection and subsequent cell counts. Cytospin slides are prepared and eosinophil % are determined by counting ˜400 cells per slide. The test compounds are dosed at 5 mg/kg twice daily. Activity is scored based on the ability of the test compound to prevent ovalbumin-induced eosinophil induction (as determined by percentage of eosinophils in BAL fluid).
row,Compound,Activity (P < 0.05)
1,"Cc1cc2c(CC(=O)O)c(C)n(Cc3nc4ccccc4s3)c2cc1Cl [[1-(1,3-benzothiazol-2-ylmethyl)-6-chloro-2,5-dimethyl-1H-indol-3-yl]acetic acid]",no
2,"Cc1c(CC(=O)O)c2cc(F)c(Cl)cc2n1Cc1nc2ccccc2s1 [[1-(1,3-benzothiazol-2-ylmethyl)-6-chloro-5-fluoro-2-methyl-1H-indol-3-yl]acetic acid]",no
3,"COc1cc2c(CC(=O)O)c(C)n(Cc3nc4ccccc4s3)c2cc1Cl [[1-(1,3-benzothiazol-2-ylmethyl)-6-chloro-5-methoxy-2-methyl-1H-indol-3-yl]acetic acid]",no
4,COc1cc2c(CC(=O)O)c(C)n(Cc3cccc(Br)c3)c2cc1Cl [[1-(3-bromobenzyl)-6-chloro-5-methoxy-2-methyl-1H-indol-3-yl]acetic acid],no
5,"COc1cc2c(CC(=O)O)c(C)n(Cc3cc(Cl)cc(Cl)c3)c2cc1Cl [[6-chloro-1-(3,5-dichlorobenzyl)-5-methoxy-2-methyl-1H-indol-3-yl]acetic acid]",no
6,COc1cc2c(CC(=O)O)c(C)n(Cc3cccc(Cl)c3)c2cc1Cl [[6-chloro-1-(3-chlorobenzyl)-5-methoxy-2-methyl-1H-indol-3-yl]acetic acid],no
7,"Cc1c(CC(=O)O)c2c(Cl)cc(Cl)cc2n1Cc1cccc(OC(F)(F)F)c1 [{4,6-dichloro-2-methyl-1-[3-(trifluoromethoxy)benzyl]-1H-indol-3-yl}acetic acid]",no
8,"Cc1c(CC(=O)O)c2cc(Cl)c(Cl)cc2n1Cc1cccc(OC(F)(F)F)c1 [{5,6-dichloro-2-methyl-1-[3-(trifluoromethoxy)benzyl]-1H-indol-3-yl}acetic acid]",no
9,"Cc1cc2c(CC(=O)O)c(C)n(Cc3cccc(OC(F)(F)F)c3)c2cc1Cl [{6-chloro-2,5-dimethyl-1-[3-(trifluoromethoxy)benzyl]-1H-indol-3-yl}acetic acid]",yes
10,"Cc1cc2c(CC(=O)O)c(C)n(Cc3cccc(C(F)(F)F)c3)c2cc1Cl [{6-chloro-2,5-dimethyl-1-[3-(trifluoromethyl)benzyl]-1H-indol-3-yl}acetic acid]",no
11,Cc1c(CC(=O)O)c2cc(F)c(Cl)cc2n1Cc1cccc(OC(F)(F)F)c1 [{6-chloro-5-fluoro-2-methyl-1-[3-(trifluoromethoxy)benzyl]-1H-indol-3-yl}acetic acid],no
12,COc1cc2c(CC(=O)O)c(C)n(Cc3cccc(OC(F)(F)F)c3)c2cc1Cl [{6-chloro-5-methoxy-2-methyl-1-[3-(trifluoromethoxy)benzyl]-1H-indol-3-yl}acetic acid],yes
13,COc1cc2c(CC(=O)O)c(C)n(Cc3cccc(C(F)(F)F)c3)c2cc1Cl [{6-chloro-5-methoxy-2-methyl-1-[3-(trifluoromethyl)benzyl]-1H-indol-3-yl}acetic acid],no
